In data set [1] the target is T1, SGLT5 (Homo sapiens, UniProt A0PJK1).
T1 construct: expressed in transfected cells; host or cells: T-Rex 293 cells (Invitrogen), stably transfected with pT-Rex-Dest30-hSGLT5; expression induced with tetracycline; deposited clone DSM ACC3096
T1 sequence (A0PJK1 1-596): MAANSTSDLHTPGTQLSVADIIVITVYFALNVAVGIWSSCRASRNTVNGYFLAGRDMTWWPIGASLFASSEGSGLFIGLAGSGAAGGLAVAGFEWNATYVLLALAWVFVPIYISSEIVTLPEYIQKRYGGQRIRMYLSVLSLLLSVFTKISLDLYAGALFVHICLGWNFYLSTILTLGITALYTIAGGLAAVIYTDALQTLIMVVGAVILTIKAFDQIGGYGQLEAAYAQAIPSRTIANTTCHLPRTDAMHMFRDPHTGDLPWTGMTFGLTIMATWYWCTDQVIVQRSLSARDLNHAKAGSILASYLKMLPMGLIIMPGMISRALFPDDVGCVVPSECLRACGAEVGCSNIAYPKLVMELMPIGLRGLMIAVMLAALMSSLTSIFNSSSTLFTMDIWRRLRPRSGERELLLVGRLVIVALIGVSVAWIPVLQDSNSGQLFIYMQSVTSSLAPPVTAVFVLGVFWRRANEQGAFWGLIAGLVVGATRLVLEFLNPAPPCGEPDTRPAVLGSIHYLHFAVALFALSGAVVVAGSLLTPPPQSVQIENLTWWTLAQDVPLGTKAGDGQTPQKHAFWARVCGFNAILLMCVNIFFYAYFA
Nature of the data set: Km-determination for mannose, fructose and AMG uptake by T-Rex 293-hSGLT5 cells. The note with it: for Km: specific (sodium dependent) uptake of [14C]-sugar, 4 h, T-Rex 293-hSGLT5 cells, three assays in parallel, read-out: Affinity for SGLT5 (Km). It counts as cell-based. As to the method:
(§1) [^14C]-monosaccharide uptake inhibition experiments: Stable cell lines overexpressing human SGLT-5 were used for the sodium-dependent monosaccharide transport inhibition assay. Cells were pre-incubated in 200 μl uptake buffer (10 mM HEPES, 137 mM NaCl, 5.4 mM KCl, 2.8 mM CaCl2, 1.2 mM MgCl2, 50 μg/ml Gentamycin, 0.1% BSA) for 25 minutes at 37° C. 10 μM Cytochalasin B and test compound was added at different concentrations 15 minutes before the initiation of the uptake experiment.
(§2) The uptake reaction was started by the addition of 0.6 μCi [^14C]-labelled monosaccharide i.e. [^14C]-labeled alpha-methyl glucopyranoside (AMG), glucose, fructose, mannose or myo-inositol, in 0.1 mM AMG (or the respective non-radioactive monosaccharide).
After incubation for 60 minutes at 37° C., the cells were washed three times with 300 μl PBS (Cambrex, Verviers, Belgium) and then lysed in 0.1 N NaOH with intermittent shaking for 5 minutes. The lysate was mixed with 200 μl MicroScint 40 and shaken for 15 minutes and counted for radioactivity in the TopCount NXT (Canberra Packard, Schwadorf, Austria). The cells were pre-incubated in pre-treatment buffer (uptake buffer containing choline chloride instead of sodium chloride) for 25 minutes prior to addition of uptake buffer.
Km-determination for mannose, fructose and Alpha-Methylglucose (AMG) uptake by SGLT5: The uptake of Mannose, Fructose and AMG was assayed as described under “[^14C]-monosaccharide uptake inhibition experiments” in the absence (nonspecific uptake) or presence of sodium (Total uptake) in the buffer at different concentrations of the respective monosaccharide for 4 h. From the difference of Total uptake and Nonspecific uptake the Specific uptake was calculated and the Km was determined using the Program Graph Pad Prism (LaJolla, Calif., USA).
(§3) The measured affinity curves measured in three assays run in parallel are shown in FIG. 4A (for mannose), 4B (for fructose) and 4C (for AMG).

The target of data set [2] is T1, SGLT5. Nature of the data set: Time dependent specific uptake of [14C]-monosaccharides by T-Rex 293-hSGLT5 cells (FIG. 3). Format: cell-based. The note with it: 1 mM monosaccharide, 5-60 min, tetracycline induced T-Rex 293-hSGLT5 cells. As to the method: [^14C]-saccharide uptake experiments: 30000 cells per well were seeded in white poly-D-lysine-coated 96-well plates and incubated over night. The expression of hSGLT5 was induced 24 h before the start of uptake experiments by the addition of 1 μg/ml tetracycline to the cells. For the assay, cells were washed twice with 250 μl pre-treatment buffer [140 mM cholinchloride in basal buffer (10 mM HEPES; 5.4 mM KCl; 2.8 mM CaCl2*2 H2O; 1.2 mM MgSO4*7 H2O; 0.1% BSA, pH 7.4) and incubated in 200 μl pre-treatment buffer for 25 min at 37° C. Pre-treatment buffer was removed and 200 μl uptake buffer was added to the cells (140 mM NaCl in basal buffer containing 1 mM cold monosaccharide [either glucose, fructose, mannose, galactose or alphamethyl glucopyranoside (AMG), respectively]+0,6 μCi [^14C]-labelled monosaccharide [either glucose, fructose, mannose, galactose or alpha-methyl glucopyranoside (AMG), respectively] (Hartmann Analytics, Mannheim, Germany) and 10 μM Cytochalasin B. After incubation for 5, 10, 30 and 60 minutes at 37° C., the cells were washed three times with 300 μl PBS (Cambrex, Verviers, Belgium) and then lysed in 0.1 N NaOH with intermittent shaking for 5 min. The lysate was mixed with 200 μl MikroScint 40 Scintillator, shaken for 15 min and counted for radioactivity in the TopCount NXT (Canberra Packard, Schwadorf, Austria). Specific sugar uptake was determined by subtracting non-specific uptake of each sugar (in the presence of choline chloride) from total uptake of the same sugar (in the presence of sodium chloride).
Furthermore, a protocol was established to measure the specific uptake of monosaccharides e.g. mannose, fructose, glucose, AMG and galactose by hSGLT5, It could be shown that the transporter takes up mannose and fructose with high affinity and hardly transports glucose, AMG and galactose (FIG. 3). […] Specific uptake was calculated by subtracting the respective monosaccharide uptake in the presence of choline chloride from the total uptake of the same monosaccharide in the presence of sodium chloride.

In data set [3] the target is T1, SGLT5. Briefly: [14C]-monosaccharide uptake inhibition assay, [14C]-mannose as substrate, stable cell lines overexpressing human SGLT-5. Format: cell-based. The note with it: for IC50 / pIC50 ± SEM for inhibition of hSGLT-5: [14C]-mannose as substrate. As to the method: [^14C]-monosaccharide uptake inhibition experiments: Stable cell lines overexpressing human SGLT-5 were used for the sodium-dependent monosaccharide transport inhibition assay. […] The uptake reaction was started by the addition of 0.6 μCi [^14C]-labelled monosaccharide i.e. [^14C]-labeled alpha-methyl glucopyranoside (AMG), glucose, fructose, mannose or myo-inositol, in 0.1 mM AMG (or the respective non-radioactive monosaccharide). After incubation for 60 minutes at 37° C., the cells were washed three times with 300 μl PBS (Cambrex, Verviers, Belgium) and then lysed in 0.1 N NaOH with intermittent shaking for 5 minutes. The lysate was mixed with 200 μl MicroScint 40 and shaken for 15 minutes and counted for radioactivity in the TopCount NXT (Canberra Packard, Schwadorf, Austria). The cells were pre-incubated in pre-treatment buffer (uptake buffer containing choline chloride instead of sodium chloride) for 25 minutes prior to addition of uptake buffer. A dose-response curve was fitted to an empirical four-parameter model using XL Fit (IDBS, Guildford, UK) to determine the inhibitor concentration at half-maximal response (IC50). Human SGLT-5 was identified to be a mannose transporter and the inhibition of hSGLT-5 was assessed by a newly established [^14C]-mannose uptake assay.

Substrate in data set [4]: O=C(CO)[C@@H](O)[C@H](O)[C@H](O)CO
Briefly: Km-determination for mannose, fructose and AMG uptake by T-Rex 293-hSGLT5 cells. Format: cell-based, human. The note with it: other: specific (sodium dependent) uptake of [14C]-sugar, 4 h, three assays in parallel, 37.0 °C. The method, then:
as §1, §2
After incubation for 60 minutes at 37° C., the cells were washed three times with 300 μl PBS (Cambrex, Verviers, Belgium) and then lysed in 0.1 N NaOH with intermittent shaking for 5 minutes. The lysate was mixed with 200 μl MicroScint 40 and shaken for 15 minutes and counted for radioactivity in the TopCount NXT (Canberra Packard, Schwadorf, Austria). […]
as §3

[5] abbreviates: 60 minutes at 37° C., at least three independent experiments, read-out: Mean IC50 for inhibition of hSGLT-5.

Like-named read-outs stand apart in the source and are kept apart here.

A word on the Km: it is the concentration of substrate that gives half-maximal velocity. As to `COC1OC(CO)C(O)C(O)C1O` (stereo not drawn) [AMG, alpha-methyl glucopyranoside], at SGLT5 [1] (ratio of Km values), the “Km fold higher than the Km for fructose” value was “at least 5 fold” and the “Km fold higher than the Km for mannose” value is “at least 33 fold”. Moreover, the Km on SGLT5 [1] worked out at 10.1 mM. Further, the “specific uptake / affinity for hSGLT5 (in words)” value on SGLT5 [2] was “very low affinity”.

Regarding `OC[C@H]1O[C@@H](c2ccc(F)c(Cc3cc4ccccc4s3)c2)[C@H](O)[C@@H](O)[C@@H]1O` [ASP-1941], the IC50 on SGLT5 [3] (setting [5]) is 740 nM. `Cc1ccc([C@@H]2O[C@H](CO)[C@@H](O)[C@H](O)[C@H]2O)cc1Cc1ccc(-c2ccc(F)cc2)s1` [Canagliflozin]: the IC50 on SGLT5 [3] (setting [5]) is 1700 nM. Also, on SGLT5 [3] (given with negative sign), the pIC50 ± SEM for inhibition of hSGLT-5 was 5.77 ± 0.12. As for `OC[C@H]1O[C@@H](c2ccc(Cl)c(Cc3ccc(O[C@H]4CCOC4)cc3)c2)[C@H](O)[C@@H](O)[C@@H]1O` [Compound A, D-glucitol, 1,5-anhydro-1-C-[4-chloro-3-[[4-[[(3S)-tetrahydro-3-furanyl]oxy]phenyl]methyl]phenyl]-, (1S)-], the IC50 at SGLT5 [3] (setting [5]) was 1100 nM; at SGLT5 [3] (given with negative sign, read-out: pIC50 ± SEM for inhibition of hSGLT-5 (converted)), 1050 nM. For `Cc1cc(O)c(C(=O)CCc2ccc3occc3c2)c(O[C@@H]2O[C@H](CO)[C@@H](O)[C@H](O)[C@H]2O)c1` [Compound T1095A], the IC50 at SGLT5 [3] (setting [5]) is 1100 nM. For the same molecule, the pIC50 ± SEM for inhibition of hSGLT-5 against SGLT5 [3] (given with negative sign) came out at 5.97 ± 0.19. Turning to `CCOc1ccc(Cc2cc([C@@H]3O[C@H](CO)[C@@H](O)[C@H](O)[C@H]3O)ccc2Cl)cc1` [Dapagliflozin], on SGLT5 [3] (setting [5]), the IC50 amounted to 820 nM. Take `O=C(CO)[C@@H](O)[C@H](O)[C@H](O)CO` [Fructose]: at SGLT5 [1] (ratio of Km values), the “Km fold higher than the Km for mannose” value turned out to be 6.67 fold. On SGLT5 [1], the Km is not above 2 mM. The “specific uptake / affinity for hSGLT5 (in words)” value at SGLT5 [2] is “high affinity”. On to `O=C(CCc1ccc(O)cc1)c1c(O)cc(O)cc1O[C@@H]1O[C@H](CO)[C@@H](O)[C@H](O)[C@H]1O` [Phlorizin], for which, on SGLT5 [3] (setting [5]), the IC50 came to 1500 nM. As to `Cc1c(Cc2ccc(OC(C)C)cc2)c(O[C@@H]2O[C@H](CO)[C@@H](O)[C@H](O)[C@H]2O)nn1C(C)C` [Remogliflozin], the “selectivity over SGLT-2” value at SGLT5 [3] (SGLT-5 versus SGLT-2) is recorded as less than 15 fold. For the same molecule, the IC50 on SGLT5 [3] (setting [5]) turned out to be 190 nM. On to `COc1ccc(Cc2ccccc2O[C@@H]2O[C@H](CO)[C@@H](O)[C@H](O)[C@H]2O)cc1` [Sergliflozin], for which the IC50 on SGLT5 [3] (setting [5]) came out at 1100 nM. Moreover, the pIC50 ± SEM for inhibition of hSGLT-5 against SGLT5 [3] (given with negative sign) worked out at 5.95.

B1: SGLT5 (Homo sapiens) (protein)
chain: MAANSTSDLHTPGTQLSVADIIVITVYFALNVAVGIWSSCRASRNTVNGYFLAGRDMTWWPIGASLFASSEGSGLFIGLAGSGAAGGLAVAGFEWNATYVLLALAWVFVPIYISSEIVTLPEYIQKRYGGQRIRMYLSVLSLLLSVFTKISLDLYAGALFVHICLGWNFYLSTILTLGITALYTIAGGLAAVIYTDALQTLIMVVGAVILTIKAFDQIGGYGQLEAAYAQAIPSRTIANTTCHLPRTDAMHMFRDPHTGDLPWTGMTFGLTIMATWYWCTDQVIVQRSLSARDLNHAKAGSILASYLKMLPMGLIIMPGMISRALFPDDVGCVVPSECLRACGAEVGCSNIAYPKLVMELMPIGLRGLMIAVMLAALMSSLTSIFNSSSTLFTMDIWRRLRPRSGERELLLVGRLVIVALIGVSVAWIPVLQDSNSGQLFIYMQSVTSSLAPPVTAVFVLGVFWRRANEQGAFWGLIAGLVVGATRLVLEFLNPAPPCGEPDTRPAVLGSIHYLHFAVALFALSGAVVVAGSLLTPPPQSVQIENLTWWTLAQDVPLGTKAGDGQTPQKHAFWARVCGFNAILLMCVNIFFYAYFA
notes: expressed in transfected cells; host or cells: T-Rex 293 cells (Invitrogen), stably transfected with pT-Rex-Dest30-hSGLT5; expression induced with tetracycline; deposited clone DSM ACC3096
As to B1, in data set [4], the Michaelis-Menten constant (Km) is recorded as 2.0 mM.

The values are drawn from US20130065792A1, “INDUCIBLE EXPRESSION OF SGLT5, METHODS AND KITS USING THE SAME” (BOEHRINGER INGELHEIM INTERNATIONAL GMBH, priority 2011, published 2013).
